According to patent US12077503B2, “Substituted cyclic amides and their use as herbicides” (FMC CORPORATION, priority 2015, dated 2024):

What was measured:
Type in all cases: in vivo
[1] = tested on: barnyardgrass (Echinochloa crus-galli); assay: Test B flooded paddy test; settings: Flood, 0 to 100 scale where 0 is no effect and 100 is complete control, 13 to 15 d
Summary of the method: (§1)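 Rating scale 0–100 (visual, vs untreated controls) after a 13–15 d greenhouse period; application to the flood layer, 3 cm above soil and maintained; plants at 2-leaf stage when treated.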

[2] = tested on: sedge, umbrella (small-flower umbrella sedge, Cyperus difformis); assay: Test B flooded paddy test; settings: Flood; for Plant response rating, Sedge, Umbrella: 500 g ai/ha, 0 to 100 scale where 0 is no effect and 100 is complete control, 13 to 15 d
Summary of the method: as §1

rice (Oryra sativa) = assay: Test B flooded paddy test; settings: Flood, 0 to 100 scale where 0 is no effect and 100 is complete control, 13 to 15 d
Summary of the method: as §1

[3] = tested on: ducksalad (Heteranthera limosa); assay: Test B flooded paddy test; settings: Flood, 0 to 100 scale where 0 is no effect and 100 is complete control, 13 to 15 d
Summary of the method: as §1

[4] = tested on: barnyardgrass (Echinochloa crus-galli); assay: Test A postemergence; settings: postemergence, 0 to 100 scale (0 no effect, 100 complete control)
Summary of the method: (§2)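 Visual injury, scored on a 0–100 scale relative to untreated controls, was recorded about 10 d after application. Treatments were a preemergence soil spray over planted seeds or a postemergence spray on plants at the one- to two-leaf stage, 2 to 10 cm tall, all in loam soil–sand blend in the greenhouse.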

[5] = tested on: pigweed (Amaranthus retroflexus); assay: Test A postemergence; settings: postemergence, 0 to 100 scale (0 no effect, 100 complete control)
Summary of the method: as §2

corn (Zea mays) = assay: Test A postemergence; settings: postemergence, 0 to 100 scale (0 no effect, 100 complete control)
Summary of the method: as §2

Kochia (Kochia scoparia) [6] = assay: Test A postemergence; settings: postemergence, 0 to 100 scale (0 no effect, 100 complete control)
Summary of the method: as §2

[7] = tested on: Galium (catchweed bedstraw, Galium aparine); assay: Test A postemergence; settings: postemergence, 0 to 100 scale (0 no effect, 100 complete control)
Summary of the method: as §2

[8] = tested on: ryegrass, Italian (Italian ryegrass, Lolium multiflorum); assay: Test A postemergence; settings: postemergence, 0 to 100 scale (0 no effect, 100 complete control)
Summary of the method: as §2

[9] = tested on: wheat (Triticum aestivum); assay: Test A postemergence; settings: postemergence, 0 to 100 scale (0 no effect, 100 complete control)
Summary of the method: as §2

[10] = tested on: ragweed (common ragweed, Ambrosia elatior); assay: Test A postemergence; settings: postemergence, 0 to 100 scale (0 no effect, 100 complete control)
Summary of the method: as §2

[11] = tested on: blackgrass (Alopecurus myosuroides); assay: Test A postemergence; settings: postemergence, 0 to 100 scale (0 no effect, 100 complete control)
Summary of the method: as §2

[12] = tested on: giant foxtail (Setaria faberii); assay: Test A postemergence; settings: postemergence, 0 to 100 scale (0 no effect, 100 complete control)
Summary of the method: as §2

[13] = tested on: barnyardgrass (Echinochloa crus-galli); assay: Test A preemergence
Summary of the method: as §2

[14] = tested on: pigweed (Amaranthus retroflexus); assay: Test A preemergence; settings: preemergence
Kochia (Kochia scoparia) [15] = assay: Test A preemergence
Summary of the method: as §2

[16] = tested on: ryegrass, Italian (Italian ryegrass, Lolium multiflorum); assay: Test A preemergence; settings: preemergence
Summary of the method: as §2

[17] = tested on: ragweed (common ragweed, Ambrosia elatior); assay: Test A preemergence; settings: preemergence
Summary of the method: as §2

[18] = tested on: giant foxtail (Setaria faberii); assay: Test A preemergence
Summary of the method: as §2

[19] = 125 g ai/ha, visual rating after approx. 10 d
[20] = 500 g ai/ha, visual injury, approx. 10 d
[21] = 125 g ai/ha, visual injury after approximately 10 d
[22] = 125 g ai/ha, Preemergence, visual injury after approximately 10 d, 0 to 100 scale where 0 is no effect and 100 is complete control
[23] = 500 g ai/ha, preemergence, 0 to 100 scale, 0 = no effect, 100 = complete control
[24] = 125 g ai/ha, visual rating after approx. 10 d, 0 to 100 scale where 0 is no effect and 100 is complete control
[25] = 500 g ai/ha, 0 to 100 scale, 0 = no effect, 100 = complete control
[26] = 125 g ai/ha, preemergence, visual rating after approx. 10 d, 0 to 100 scale where 0 is no effect and 100 is complete control

Compound	Plant response rating, Barnyardgrass [4, 20]	Plant response rating, Pigweed [5, 21]	Plant response rating, Pigweed [5, 20]	Plant response rating, Corn (corn (Zea mays); [21])	Plant response rating, Corn (corn (Zea mays); [20])	Plant response rating, Kochia (Kochia (Kochia scoparia) [6]; [21])	Plant response rating, Kochia (Kochia (Kochia scoparia) [6]; [20])	Plant response rating, Galium [7, 21]	Plant response rating, Galium [7, 20]	Plant response rating, Ryegrass, Italian [8, 21]	Plant response rating, Ryegrass, Italian [8, 20]	Plant response rating, Wheat [9, 21]	Plant response rating, Wheat [9, 20]	Plant response rating, Ragweed [10, 21]	Plant response rating, Ragweed [10, 20]	Plant response rating, Blackgrass [11, 20]	Plant response rating, Foxtail, Giant [12, 21]	Plant response rating, Foxtail, Giant [12, 20]	Plant response rating, Barnyardgrass [13, 23]	Plant response rating, Pigweed [14, 24]	also measured
O=C1NCC(c2cccc(Br)c2)C1C(=O)Nc1ccc(F)c(F)c1F (racemic) [Compound 689]	90	30	60	60	80	30	60	50	50	30	60	20	60	0	50	60	80	90	90	20	Plant response rating, Barnyardgrass ([1]; 250 g ai/ha): 40; Sedge, Umbrella plant response rating ([2]; 250 g ai/ha, scale of 0 to 100 where 0 is no effect and 100 is complete control): 0; Plant response rating, Rice (rice (Oryra sativa); 250 g ai/ha): 0; Plant response rating, Ducksalad ([3]; 250 g ai/ha): 98; Plant response rating, Barnyardgrass [4, 19]: 90; Plant response rating, Blackgrass [11, 19]: 50; Plant response rating, Barnyardgrass [13, 22]: 90; Plant response rating, Pigweed [14, 25]: 40; Plant response rating, Kochia (Kochia (Kochia scoparia) [15]; [22]): 20; Plant response rating, Kochia (Kochia (Kochia scoparia) [15]; [23]): 60; Plant response rating, Ryegrass, Italian [16, 24]: 0; Plant response rating, Ryegrass, Italian [16, 25]: 20; Plant response rating, Ragweed [17, 24]: 0; Plant response rating, Ragweed [17, 25]: 30; Plant response rating, Foxtail, Giant [18, 22]: 90; Plant response rating, Foxtail, Giant [18, 23]: 90
O=C1NCC(c2cccc(OC(F)(F)C(F)F)c2)C1C(=O)Nc1ccc(F)cc1F (racemic) [Compound 696]	80	30	60	40	70	30	40	50	70	30	40	30	50	20	40	40	80	80	90	20	Plant response rating, Barnyardgrass ([1]; 500 g ai/ha): 75; Plant response rating, Sedge, Umbrella [2]: 0; Plant response rating, Rice (rice (Oryra sativa); 500 g ai/ha): 35; Plant response rating, Ducksalad ([3]; 500 g ai/ha): 90; Plant response rating, Barnyardgrass [4, 21]: 80; Plant response rating, Blackgrass [11, 21]: 30; Plant response rating, Barnyardgrass [13, 26]: 80; Plant response rating, Pigweed [14, 25]: 30; Plant response rating, Kochia (Kochia (Kochia scoparia) [15]; [26]): 40; Plant response rating, Kochia (Kochia (Kochia scoparia) [15]; [23]): 60; Plant response rating, Ryegrass, Italian [16, 24]: 30; Plant response rating, Ryegrass, Italian [16, 25]: 60; Plant response rating, Ragweed [17, 24]: 0; Plant response rating, Ragweed [17, 25]: 40; Plant response rating, Foxtail, Giant [18, 26]: 90; Plant response rating, Foxtail, Giant [18, 23]: 90
O=C1NCC(c2ccc(I)cc2)C1C(=O)Nc1ccccc1F (racemic) [Compound 702]	70	0	0	0	0	0	0	0	40	0	0	0	0	0	0	0	30	80	90	0	Plant response rating, Barnyardgrass ([1]; 500 g ai/ha): 50; Plant response rating, Sedge, Umbrella [2]: 0; Plant response rating, Rice (rice (Oryra sativa); 500 g ai/ha): 20; Plant response rating, Ducksalad ([3]; 500 g ai/ha): 100; Plant response rating, Barnyardgrass [4, 21]: 70; Plant response rating, Blackgrass [11, 21]: 0; Plant response rating, Barnyardgrass [13, 26]: 70; Plant response rating, Pigweed [14, 25]: 30; Plant response rating, Kochia (Kochia (Kochia scoparia) [15]; [26]): 20; Plant response rating, Kochia (Kochia (Kochia scoparia) [15]; [23]): 20; Plant response rating, Ryegrass, Italian [16, 24]: 0; Plant response rating, Ryegrass, Italian [16, 25]: 0; Plant response rating, Ragweed [17, 24]: 0; Plant response rating, Ragweed [17, 25]: 0; Plant response rating, Foxtail, Giant [18, 26]: 90; Plant response rating, Foxtail, Giant [18, 23]: 90
O=C1NCC(c2ccc(I)cc2)C1C(=O)Nc1cccc(F)c1 (racemic) [Compound 703]	70	0	0	0	0	0	0	0	0	0	0	0	0	0	0	0	50	90	80	0	Plant response rating, Barnyardgrass ([1]; 500 g ai/ha): 30; Plant response rating, Sedge, Umbrella [2]: 0; Plant response rating, Rice (rice (Oryra sativa); 500 g ai/ha): 0; Plant response rating, Ducksalad ([3]; 500 g ai/ha): 98; Plant response rating, Barnyardgrass [4, 21]: 60; Plant response rating, Blackgrass [11, 21]: 0; Plant response rating, Barnyardgrass [13, 26]: 20; Plant response rating, Pigweed [14, 25]: 0; Plant response rating, Kochia (Kochia (Kochia scoparia) [15]; [26]): 0; Plant response rating, Ryegrass, Italian [16, 24]: 0; Plant response rating, Ryegrass, Italian [16, 25]: 0; Plant response rating, Ragweed [17, 24]: 0; Plant response rating, Ragweed [17, 25]: 0; Plant response rating, Foxtail, Giant [18, 26]: 80; Plant response rating, Foxtail, Giant [18, 23]: 90
O=C1NCC(c2ccc(I)cc2)C1C(=O)Nc1ccccc1Cl (racemic) [Compound 704]	90	0	20	0	0	0	20	20	40	0	20	0	0	0	20	30	70	90	90	0	Plant response rating, Barnyardgrass ([1]; 500 g ai/ha): 30; Plant response rating, Sedge, Umbrella [2]: 0; Plant response rating, Rice (rice (Oryra sativa); 500 g ai/ha): 0; Plant response rating, Ducksalad ([3]; 500 g ai/ha): 85; Plant response rating, Barnyardgrass [4, 21]: 70; Plant response rating, Blackgrass [11, 21]: 0; Plant response rating, Barnyardgrass [13, 26]: 40; Plant response rating, Pigweed [14, 25]: 30; Plant response rating, Kochia (Kochia (Kochia scoparia) [15]; [26]): 0; Plant response rating, Kochia (Kochia (Kochia scoparia) [15]; [23]): 30; Plant response rating, Ryegrass, Italian [16, 24]: 0; Plant response rating, Ryegrass, Italian [16, 25]: 20; Plant response rating, Ragweed [17, 24]: 0; Plant response rating, Ragweed [17, 25]: 20; Plant response rating, Foxtail, Giant [18, 26]: 90; Plant response rating, Foxtail, Giant [18, 23]: 90
